# From patent publication EP1662258A1, “A substrate free in vitro protein kinase assay” (Sirenade Pharmaceuticals AG, priority 2004, dated 2006)
# Where “and” joins values, the source holds several entries; their conditions need not be identical. Identical values can stand only once. Entries after “also recorded” stand apart in the source; their conditions may differ.
# How the values were obtained:
# Src kinase Srcv2 = Src kinase Srcv2 (Homo sapiens, UniProt P12931); test: Src protein tyrosine kinase auto-phosphorylation (autoactivation) assay with Srcv2
# Description: After mixing the kinase with the compound the final DMSO concentration was 40%. Then, 190 µl of the preincubated compound/kinase solution are transfered to 96 well Ni-NTA plates (Ni-NTA HisSorb™ plates, white, Qiagen (cat.No.35081) and incubated for 30 min at room temperature on a rotation shaker at 300 rpm to allow binding of the kinase to the wells. The kinase/compound solution containing unbound kinase and compound is carefully replaced by 200 µl of DMSO free initiation buffer (50 mM Tris/HCl, pH 7.2, 10 mM MgCl2, 100 µM ATP) per well and the plate is incubated for 20 min at room temperature on a rotation shaker at 300 rpm.
# The initiation buffer is then removed carefully and the plate is washed two times with PBS-Tween (PBS-T) buffer (50 mM potassium phosphate, pH 7.2, 150 mM NaCl, 0.05 % Tween 20) (200 µl per well per washing step).
# The antibody solution is removed carefully and the plate is washed three times with 200 µl PBS-T buffer (200 µl per well per washing step).
# • 2.7.1 The assay was used for qualitative and quantitative analysis of different compound classes. […] The assay was performed either manually or in a semiautomatic approach using the EP3 robotor (Perkin Elmer) for automated pipetting steps. […] Solution was removed and 200 µl assay buffer, containing 100µM ATP was added and the plate was incubated for 30 min at RT on a rotation shaker. Solution was removed and wells were washed 3 times with 200µl PBST. Afterwards 200 µl 1:2000 diluted anti p-Tyr antibody in PBST-0.5% BSA was added and the plate was incubated for 30 min at RT on a rotation shaker. The degree of src kinase auto-phosphorylation was detected with an anti p-Tyr-antibody as described above. […] The DMSO concentration was 30 %. […] The measurements were carried out either as unicates or as triplicates. The standard deviation is shown by error bars.
# In order to get information about the quality of the assay the z' was determined for the assay. For determination of the maximal counts src v2 in the absence of inhibitor was used.
# Src kinase (Srcv1) = Src kinase (Srcv1) (Homo sapiens, UniProt P12931); test: Src protein tyrosine kinase auto-phosphorylation (autoactivation) assay, Srcv1 immobilised on Ni-NTA plates, anti p-Tyr chemoluminiscence readout
# Description: The assay will be performed as a solid phase assay, which can be done by immobilisation of the kinase (Srcv1) via its His6-tag on Ni-NTA coated 96 wells (Qiagen), as this assay system allows washing steps. Thus it was evaluated, whether it is possible to detect auto-phosphorylated src kinase, immobilized on Ni-NTA coated plates with an HRP labeled anti p-Tyr antibody. Therefore, Src kinase (1.0µM) was incubated for 30 min either in the presence and absence of 50 µM ATP at RT in incubation buffer (50 mM Tris/HCl, pH 7.2, 10 mM MgCl2). Afterwards the solution was diluted to 1.0, 0.5, 0.25 and 0.0 µM final src protein concentration in PBS and incubated for 30 min (V= 200µl) on NiNTA coated plates at RT on a rotation shaker (300 rpm). After removal of the supernatant and 3 times washing with 200 µl PBS-T, immobilized, phosphorylated src kinase was detected. Therefore, a solution of HRP-labeled anti p-Tyr antibody (Abcam) (200 µl, 1:2000 diluted in PBST-0.5% BSA) was added to the wells and the plate was incubated for 30 min at RT °C, 300 rpm. After removal of the supernatant and 3 times washing with 200 µl PBS-T, chemoluminiscence development buffer was added (200 µl of a 1:1 mixture of ECL substrate, Amersham) and chemoluminiscence signal was quantified using Wallac1420 Multilabel counter (Victor^2).
# Afterwards 100 µl assay buffer containing 100 µM ATP was added (except for the negative control which was incubated with 100 µl assay buffer without ATP) and the mixture was transfered to Ni-NTA coated plates and further incubated for 20 min at RT on a rotation shaker (300 rpm). The degree of src kinase auto-phosphorylation was detected with an anti p-Tyr-antibody as described above (see Figure 3a).
# The solution was transfered on NiNTA plates and incubated for 30 min with 100 µl assay buffer containing 100 µM ATP for the auto-phosphorylation of src. The degree of src kinase auto-phosphorylation was detected with an anti p-Tyr-antibody as described above (see Figure 3b).
compound,measurement,setting,value
Cc1ccc(-c2nn(C(C)(C)C)c3ncnc(N)c23)cc1 [PP1],"chemoluminiscence signal (counts), mean, first series",Src kinase Srcv2,5948
same,"chemoluminiscence signal (counts), mean, second series",Src kinase Srcv2,5700
same,"chemoluminiscence signal (counts), single values, first series",Src kinase Srcv2,5816 and 5922 and 5781 and 6275
same,"chemoluminiscence signal (counts), single values, second series",Src kinase Srcv2,6060 and 5465 and 5523 and 5752
same,"inhibition of Srcv2 kinase (dose response curves, in words)",Src kinase Srcv2,showed inhibition
same,inhibition of auto-phosphorylation of src kinase (in words),"Src kinase (Srcv1); 100 µl src kinase (1.0 µM), compound 1.25 mM, 30% DMSO, 100 µM ATP, Figure 3b",potently inhibits; also recorded: strongest inhibition
same,inhibition of the kinase activity (in words),"Src kinase (Srcv1); Src kinase (100µl, 2.0 µM), PP1 1.25 mM, 10% DMSO, ATP 100 µM, Figure 3A",clear inhibition
